# Data taken from PubChem BioAssay (NCI).
#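 Tested at 5 concentrations; 48 h exposure; 96-well plates; endpoints linearly interpolated, else capped at highest concentration. TGI: total growth inhibition.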
# Experiments:
# Experiment in all cases: inhibition of tumour cell growth, NCI panel, 48 h
# [1] = test system: SF-539 CNS
# [2] = test system: SW-620 colon
# [3] = test system: K-562 leukemia
# [4] = test system: OVCAR-4 ovarian
# [5] = test system: KM12 colon
# [6] = test system: LOX IMVI melanoma
# [7] = test system: HS 578T breast
# [8] = test system: OVCAR-5 ovarian
# [9] = test system: NCI-H522 lung
# [10] = test system: SF-295 CNS
# [11] = test system: RXF 393 renal
# [12] = test system: NCI-H23 lung
# [13] = test system: EKVX NSCLC
# [14] = test system: U251 CNS
# [15] = test system: SN12C renal
# [16] = test system: HCC-2998 colon
# [17] = test system: TK-10 renal
# [18] = test system: MCF7 breast
# [19] = test system: M14 melanoma
# [20] = test system: SF-268 CNS
# [21] = test system: MDA-N
# [22] = test system: HCT-15 colon
# [23] = test system: HOP-62 NSCLC
# [24] = test system: DU-145 prostate
# [25] = test system: RPMI-8226 leukemia
# [26] = test system: UACC-257 melanoma
# [27] = test system: SNB-19 CNS
# [28] = test system: MDA-MB-231 breast
# [29] = test system: HCT-116 colon
# [30] = test system: SR leukemia
# [31] = test system: CCRF-CEM leukemia
# [32] = test system: A498 renal
# [33] = test system: OVCAR-3 ovarian
# [34] = test system: HOP-92 NSCLC
# [35] = test system: PC-3 prostate
# [36] = test system: HT29 colon
# [37] = test system: NCI/ADR-RES ovarian
# [38] = test system: SK-MEL-28 melanoma
# [39] = test system: A549 NSCLC
# [40] = test system: COLO 205 colon
# [41] = test system: IGROV1 ovarian
# [42] = test system: CAKI-1 renal
# [43] = test system: OVCAR-8 ovarian
# [44] = test system: UO-31 renal
# [45] = test system: UACC-62 melanoma
# [46] = test system: 786-0 renal
# [47] = test system: MDA-MB-435
# [48] = test system: ACHN renal
# [49] = test system: NCI-H226 lung
# [50] = test system: T-47D breast
# [51] = test system: HL-60(TB) leukemia
# [52] = test system: SK-OV-3 ovarian
# [53] = test system: NCI-H460 lung
# [54] = test system: SK-MEL-5 melanoma
# [55] = test system: SNB-75 CNS
smiles,measurement,setting,value
CCOP(=O)(OCC)c1cc2cc(O)ccc2oc1=O,TGI,[1],> 100 µM
same,TGI,[2],> 100 µM
same,TGI,[3],> 100 µM
same,TGI,[4],> 100 µM
same,TGI,[5],> 100 µM
same,TGI,[6],> 100 µM
same,TGI,[7],> 100 µM
same,TGI,[8],> 100 µM
same,TGI,[9],> 100 µM
same,TGI,[10],> 100 µM
same,TGI,[11],> 100 µM
same,TGI,[12],> 100 µM
same,TGI,[13],> 100 µM
same,TGI,[14],> 100 µM
same,TGI,[15],> 100 µM
same,TGI,[16],> 100 µM
same,TGI,[17],> 100 µM
same,TGI,[18],> 100 µM
same,TGI,[19],> 100 µM
same,TGI,[20],> 100 µM
same,TGI,[21],> 100 µM
same,TGI,[22],> 100 µM
same,TGI,[23],> 100 µM
same,TGI,[24],> 100 µM
same,TGI,[25],> 100 µM
same,TGI,[26],> 100 µM
same,TGI,[27],> 100 µM
same,TGI,[28],> 100 µM
same,TGI,[29],> 100 µM
same,TGI,[30],> 100 µM
same,TGI,[31],> 100 µM
same,TGI,[32],> 100 µM
same,TGI,[33],> 100 µM
same,TGI,[34],> 100 µM
same,TGI,[35],> 100 µM
same,TGI,[36],> 100 µM
same,TGI,[37],> 100 µM
same,TGI,[38],> 100 µM
same,TGI,[39],> 100 µM
same,TGI,[40],> 100 µM
same,TGI,[41],> 100 µM
same,TGI,[42],> 100 µM
same,TGI,[43],> 100 µM
same,TGI,[44],0.151 µM
same,TGI,[45],> 100 µM
same,TGI,[46],> 100 µM
same,TGI,[47],> 100 µM
same,TGI,[48],> 100 µM
same,TGI,[49],> 100 µM
same,TGI,[50],> 100 µM
same,TGI,[51],> 100 µM
same,TGI,[52],> 100 µM
same,TGI,[53],> 100 µM
same,TGI,[54],> 100 µM
same,TGI,[55],> 100 µM
